# Data reported in patent US20090023704A1, “Novel Compounds 737” (ASTRAZENECA AB, priority 2007, published 2009).
# Target: T1, GABAB receptor (GABABR1a/GABABR2 heterodimer) (Homo sapiens, UniProt O75899+Q9UBS5)
# T1 construct: expressed in transfected cells
# Test: [35S]-GTPγS binding assay, potency of PAM (GABA dose-response curves with and without test compound)
# Assay type: biochemical
# Conditions: potency of the positive allosteric modulator; GABA dose-response in presence of test compound
# Text: GABABR1a and GABABR2 were cloned from human brain cDNA and subcloned into pCI-Neo (Promega) and pALTER-1 (Promega), respectively. A GABABR1a-Gαqi5 fusion protein expression vector was constructed using the pCI-Neo-GABABR1a cDNA plasmid and pLEC1-Gαqi5 (Molecular Devices, CA). In order to make the Gαqi5 pertussis toxin insensitive, Cys356 was mutated to Gly using standard PCR methodology with the primers 5′-[…]-3′ (forward) and 5′-GCGGCCG […]-3′ (reverse). The Gαqi5mut cDNA was ligated into the BamHI and NotI sites of pcDNA3.0 (Invitrogen). The GABAB R1a coding sequence was amplified by PCR from pCI-Neo-GABABR1a using the primers, 5′-[…]-3′ (forward) and 5′-[…]-3′ (reverse) and subcloned into the BamHI site of pcDNA3.0-Gαqi5mut.
# For generation of a cell line expressing the GABABR1a/GABABR2 heterodimer, GABABR1a plasmid DNA (4 μg) GABABR2 plasmid DNA (4 μg) and lipofectamine (24 μl) were mixed in 5 ml OptiMEM and incubated for 45 minutes at room temperature. The cells were exposed to the transfection medium for 5 hours, which then was replaced with culture medium. The cells were cultured for an additional 10 days before selection agents (300 μg/ml hygromycin and 400 μg/ml geneticin) were added. Twenty-four days after transfection, single cell sorting into 96-well plates by flow cytometry was performed using a FACS Vantage SE (Becton Dickinson, Palo Alto, Calif.). After expansion, the GABAB receptor functional response was tested using the FLIPR assay described below. The clone with the highest functional response was collected, expanded and then subcloned by single cell sorting. The clonal cell line with the highest peak response in the FLIPR was used in the present study.
# For generation of a stable cell line expressing GABABR1a-Gαqi5 fusion protein and GABABR2, GABABR1a-Gαqi5mut plasmid DNA (8 μg) GABABR2 plasmid DNA (8 μg) and lipofectamine (24 μl) were mixed in 5 ml OptiMEM and incubated for 45 minutes at room temperature. The cells were exposed to the transfection medium for 5 hours, which then was replaced with culture medium. After forty-eight hours, the cells were detached and seeded in 6 well plates (2000 cells/well) and grown in culture medium supplemented with geneticin (400 μg/ml) and zeocin (250 μg/ml). After 4 days, cells from single colonies were collected and transferred to a 24-well plate. After 10 days, the cell clones were seeded in T-25 flasks and grown for another 16 days before they were tested for GABAB receptor mediated functional response. […] The clonal cell line that gave the highest peak response in the FLIPR was used in the present study.
# [^35S]-GTPγS binding assays were performed at 30° C. for 45 min in membrane buffer (100 mM NaCl, 5 mM MgCl2, 1 mM EDTA, 50 mM HEPES, pH 7.4) containing 0.025 μg/μl of membrane protein (prepared from the cell lines described above) with 0.01% bovine serum albumin (fatty acid free), 10 μM GDP, 10 μM DTT and 0.53 nM [^35S]-GTPγS (Amersham-Pharmacia Biotech) in a final volume of 200 μl. Non-specific binding was determined in the presence of 20 μM GTPγS. The reaction was started by the addition of GABA at concentration between 1 mM and 0.1 nM in the presence or absence of the required concentration of PAM. The reaction was terminated by addition of ice-cold wash buffer (50 mM Tris-HCl, 5 mM MgCl2, 50 mM NaCl, pH 7.4) followed by rapid filtration under vacuum through Printed Filtermat A glass fiber filters (Wallac) (0.05% PEI treated) using a Micro 96 Harvester (Skatron Instruments). The filters were dried for 30 min at 50° C., then a paraffin scintillant pad was melted onto the filters and the bound radioactivity was determined using a 1450 Microbeta Trilux (Wallac) scintillation counter.
# GABA dose-response curves in the presence and absence of test compounds were constructed using the 4-parameter logistic equation, y=ymax+((ymin−ymax)/1+(x/C)^D), where C=EC50 and D=slope factor.
# T1 sequence (Q9UBS5 15-961 limits assumed): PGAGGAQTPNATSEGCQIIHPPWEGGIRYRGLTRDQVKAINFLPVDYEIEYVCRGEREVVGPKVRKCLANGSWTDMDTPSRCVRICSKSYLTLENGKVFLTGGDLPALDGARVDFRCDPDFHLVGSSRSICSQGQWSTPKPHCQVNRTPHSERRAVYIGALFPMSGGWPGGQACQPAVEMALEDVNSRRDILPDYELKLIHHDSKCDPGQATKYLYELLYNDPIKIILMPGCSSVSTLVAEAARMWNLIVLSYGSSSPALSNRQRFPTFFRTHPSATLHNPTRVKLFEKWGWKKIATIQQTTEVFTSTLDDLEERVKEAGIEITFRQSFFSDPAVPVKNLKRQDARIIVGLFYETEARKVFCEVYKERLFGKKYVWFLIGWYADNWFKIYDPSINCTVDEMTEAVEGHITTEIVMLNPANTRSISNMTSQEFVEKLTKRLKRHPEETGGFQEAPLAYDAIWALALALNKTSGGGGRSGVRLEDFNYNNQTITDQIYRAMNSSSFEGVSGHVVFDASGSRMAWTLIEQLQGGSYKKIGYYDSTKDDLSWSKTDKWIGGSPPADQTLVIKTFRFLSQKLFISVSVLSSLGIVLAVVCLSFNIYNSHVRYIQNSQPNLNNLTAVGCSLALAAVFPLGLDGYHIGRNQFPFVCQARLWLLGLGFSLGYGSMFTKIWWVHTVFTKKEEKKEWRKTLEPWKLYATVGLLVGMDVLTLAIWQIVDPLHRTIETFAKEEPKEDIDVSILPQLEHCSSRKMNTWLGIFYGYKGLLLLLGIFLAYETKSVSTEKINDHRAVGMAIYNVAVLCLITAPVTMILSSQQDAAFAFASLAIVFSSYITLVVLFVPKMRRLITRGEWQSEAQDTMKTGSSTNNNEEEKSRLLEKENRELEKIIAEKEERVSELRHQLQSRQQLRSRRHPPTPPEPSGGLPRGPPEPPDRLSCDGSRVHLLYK
# T1 sequence (O75899 42-941): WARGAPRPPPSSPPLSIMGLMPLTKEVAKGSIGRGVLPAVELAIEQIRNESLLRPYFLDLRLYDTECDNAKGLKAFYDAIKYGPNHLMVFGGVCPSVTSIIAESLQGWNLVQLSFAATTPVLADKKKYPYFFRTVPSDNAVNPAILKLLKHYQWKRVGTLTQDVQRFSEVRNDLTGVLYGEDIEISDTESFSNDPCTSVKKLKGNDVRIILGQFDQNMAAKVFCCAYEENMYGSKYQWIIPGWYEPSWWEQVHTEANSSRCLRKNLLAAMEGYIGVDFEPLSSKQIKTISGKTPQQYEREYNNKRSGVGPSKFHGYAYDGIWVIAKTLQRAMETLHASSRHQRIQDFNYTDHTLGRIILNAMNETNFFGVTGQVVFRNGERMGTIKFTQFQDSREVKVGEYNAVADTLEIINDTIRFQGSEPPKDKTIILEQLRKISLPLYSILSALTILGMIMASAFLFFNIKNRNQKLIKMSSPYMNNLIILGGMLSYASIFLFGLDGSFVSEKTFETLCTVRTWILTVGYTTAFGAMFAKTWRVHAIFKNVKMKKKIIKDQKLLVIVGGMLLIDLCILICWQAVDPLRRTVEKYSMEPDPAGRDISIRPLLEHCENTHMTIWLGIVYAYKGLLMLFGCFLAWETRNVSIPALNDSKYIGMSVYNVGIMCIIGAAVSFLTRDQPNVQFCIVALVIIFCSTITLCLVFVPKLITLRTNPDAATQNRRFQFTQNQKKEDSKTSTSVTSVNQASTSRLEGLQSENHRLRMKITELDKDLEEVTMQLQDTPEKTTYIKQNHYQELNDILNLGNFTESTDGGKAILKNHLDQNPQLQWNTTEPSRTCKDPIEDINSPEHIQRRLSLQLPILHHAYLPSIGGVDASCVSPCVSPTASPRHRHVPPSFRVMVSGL
row,Structure (SMILES),EC50 [µM]
1,"CCc1nc2c(c(=O)n(Cc3ccc(Cl)cc3)c(=O)n2CCCN2CCN(c3ccccc3)CC2)n1C [Example 47, 1-(4-Chlorobenzyl)-8-ethyl-7-methyl-3-[3-(4-phenylpiperazin-1-yl)propyl]-3,7-dihydro-1H-purine-2,6-dione]",8.7
2,"CCc1nc2c(c(=O)n(Cc3ccc(Cl)cc3)c(=O)n2CC(=O)N(C(C)C)C(C)C)n1C [Example 51, 2-[1-(4-Chlorobenzyl)-8-ethyl-7-methyl-2,6-dioxo-1,2,6,7-tetrahydro-3H-purin-3-yl]-N,N-diisopropylacetamide]",11.9
3,"CCCn1c(=O)n(Cc2ccc(Cl)cc2)c(=O)c2c1nc(CC)n2C [Example 54, 1-(4-chlorobenzyl)-8-ethyl-7-methyl-3-propyl-3,7-dihydro-1H-purine-2,6-dione]",5.89
4,"CCCn1c(=O)n(Cc2ccc(Br)cc2)c(=O)c2c1nc(CC)n2C [Example 61, 1-(4-Bromobenzyl)-8-ethyl-7-methyl-3-propyl-3,7-dihydro-1H-purine-2,6-dione]",4.2
5,"CCCn1c(=O)n(Cc2ccc3nsnc3c2)c(=O)c2c1nc(CC)n2C [Example 64, 1-(2,1,3-Benzothiadiazol-5-ylmethyl)-8-ethyl-7-methyl-3-propyl-3,7-dihydro-1H-purine-2,6-dione]",11.1
6,"CCCn1c(=O)n(Cc2ccc(C(C)C)cc2)c(=O)c2c1nc(CC)n2C [Example 70, 8-Ethyl-1-(4-isopropylbenzyl)-7-methyl-3-propyl-3,7-dihydro-1H-purine-2,6-dione]",6.1
7,"CCc1nc2c(c(=O)n(Cc3ccc(Cl)cc3)c(=O)n2Cc2ccc(OC)cc2OC)n1C [Example 71, 1-(4-Chlorobenzyl)-3-(2,4-dimethoxybenzyl)-8-ethyl-7-methyl-3,7-dihydro-1H-purine-2,6-dione]",11.3
8,"CCCn1c(=O)n(Cc2ccc(Cl)cc2)c(=O)c2c1nc(CC)n2CC [Example 72, 1-(4-Chlorobenzyl)-7,8-diethyl-3-propyl-3,7-dihydro-H-purine-2,6-dione]",8.93
9,"CCCn1c(=O)n(Cc2ccc(Cl)cc2)c(=O)c2c1nc(CC)n2-c1ccc(F)cc1 [Example 74, 1-(4-Chlorobenzyl)-8-ethyl-7-(4-fluorophenyl)-3-propyl-3,7-dihydro-1H-purine-2,6-dione]",9.9
10,CCc1nc2c(c(=O)n(Cc3ccc(Cl)cc3)c(=O)n2CCC(F)(F)F)n1C [Example 75],3.5
11,CCc1nc2c(c(=O)n(Cc3ccc(Cl)cc3)c(=O)n2CCCC(F)(F)F)n1C [Example 76],4.9
12,"CCn1c(=O)n(Cc2ccc(Cl)cc2)c(=O)c2c1nc(OC)n2-c1ccc(F)cc1 [Example 77, 1-(4-chlorobenzyl)-3-ethyl-7-(4-fluorophenyl)-8-methoxy-3,7-dihydro-1H-purine-2,6-dione]",6.64
13,"CCCn1c(=O)n(Cc2ccc(Cl)cc2)c(=O)c2c1nc(OC)n2C [Example 78, 1-(4-Chlorobenzyl)-8-methoxy-7-methyl-3-propyl-3,7-dihydro-1H-purine-2,6-dione]",4.5
14,"CCCn1c(=O)n(Cc2ccc(F)cc2)c(=O)c2c1nc(OC)n2C [Example 79, 1-(4-Fluorobenzyl)-8-methoxy-7-methyl-3-propyl-3,7-dihydro-1H-purine-2,6-dione]",14.5

# The remaining compounds from weak to strong by EC50, led by results:
row,EC50 [µM],Structure (SMILES)
1,19.7,"CCCn1c(=O)n(Cc2ccc(OC)cc2)c(=O)c2c1nc(CC)n2C [Example 69, 8-Ethyl-1-(4-methoxybenzyl)-7-methyl-3-propyl-3,7-dihydro-1H-purine-2,6-dione]"
2,17.3,"CCCn1c(=O)n(Cc2nc3cc(C(F)(F)F)ccc3s2)c(=O)c2c1nc(CC)n2C [Example 66, 8-Ethyl-7-methyl-3-propyl-1-{[5-(trifluoromethyl)-1,3-benzothiazol-2-yl]methyl}-3,7-dihydro-1H-purine-2,6-dione]"
3,17.2,"CCCn1c(=O)n(Cc2ccc(Cl)cc2Cl)c(=O)c2c1nc(CC)n2C [Example 60, 1-(2,4-Dichlorobenzyl)-8-ethyl-7-methyl-3-propyl-3,7-dihydro-1H-purine-2,6-dione]"
4,16.9,"CCc1nc2c(c(=O)n(Cc3ccc(Cl)cc3)c(=O)n2CCCN2CCCC2)n1C [Example 46, 1-(4-chlorobenzyl)-8-ethyl-7-methyl-3-(3-pyrrolidin-1-ylpropyl)-3,7-dihydro-1H-purine-2,6-dione]"
5,15.7,"CCCn1c(=O)n(Cc2ccc(C(=O)c3ccccc3)cc2)c(=O)c2c1nc(CC)n2C [Example 68, 1-(4-Benzoylbenzyl)-8-ethyl-7-methyl-3-propyl-3,7-dihydro-1H-purine-2,6-dione]"
6,15.1,"CCCn1c(=O)n(Cc2cccc(Cl)c2)c(=O)c2c1nc(CC)n2C [Example 67, 1-(3-Chlorobenzyl)-8-ethyl-7-methyl-3-propyl-3,7-dihydro-1H-purine-2,6-dione]"
7,15,"CCCn1c(=O)n(Cc2ccc(OCc3ccccc3)cc2)c(=O)c2c1nc(CC)n2C [Example 56, 1-[4-(Benzyloxy)benzyl]-8-ethyl-7-methyl-3-propyl-3,7-dihydro-1H-purine-2,6-dione]"
8,13.8,"CCCn1c(=O)n(CCc2ccc(Cl)cc2)c(=O)c2c1nc(CC)n2C [Example 63, 1-[2-(4-Chlorophenyl)ethyl]-8-ethyl-7-methyl-3-propyl-3,7-dihydro-1H-purine-2,6-dione]"
9,13.4,"CCc1nc2c(c(=O)n(Cc3ccc(Cl)cc3)c(=O)n2CCCn2ccnc2)n1C [Example 49, 1-(4-Chlorobenzyl)-8-ethyl-3-[3-(1H-imidazol-1-yl)propyl]-7-methyl-3,7-dihydro-1H-purine-2,6-dione]"
10,12.1,"CCc1nc2c(c(=O)n(Cc3ccc(Cl)cc3)c(=O)n2CCCN2CCC3(CC2)OCCO3)n1C [Example 48, 1-(4-Chlorobenzyl)-3-[3-(1,4-dioxa-8-azaspiro[4.5]dec-8-yl)propyl]-8-ethyl-7-methyl-3,7-dihydro-1H-purine-2,6-dione]"
11,10,"CCc1nc2c(c(=O)n(Cc3ccc(Cl)cc3)c(=O)n2CC(=O)N2CCC(F)(F)C2)n1C [Example 50, 1-(4-Chlorobenzyl)-3-[2-(3,3-difluoropyrrolidin-1-yl)-2-oxoethyl]-8-ethyl-7-methyl-3,7-dihydro-1H-purine-2,6-dione]"
12,8.8,"CCc1nc2c(c(=O)n(Cc3ccc(Cl)cc3)c(=O)n2CC(OC)OC)n1C [Example 52, 1-(4-chlorobenzyl)-3-(2,2-dimethoxyethyl)-8-ethyl-7-methyl-3,7-dihydro-1H-purine-2,6-dione]"
13,5.9,"CCCn1c(=O)n(Cc2cnn(-c3ccc(Cl)cc3)c2C(F)(F)F)c(=O)c2c1nc(CC)n2C [Example 59, 1-{[1-(4-Chlorophenyl)-5-(trifluoromethyl)-1H-pyrazol-4-yl]methyl}-8-ethyl-7-methyl-3-propyl-3,7-dihydro-1H-purine-2,6-dione]"
14,5.7,"CCCn1c(=O)n(Cc2ccc(C(F)(F)F)cc2)c(=O)c2c1nc(CC)n2C [Example 62, 8-Ethyl-7-methyl-3-propyl-1-[4-(trifluoromethyl)benzyl]-3,7-dihydro-1H-purine-2,6-dione]"
15,2.7,"CCCn1c(=O)n(Cc2ccc3ccccc3c2)c(=O)c2c1nc(CC)n2C [Example 58, 8-Ethyl-7-methyl-1-(2-naphthylmethyl)-3-propyl-3,7-dihydro-1H-purine-2,6-dione]"
16,2.6,"CCCn1c(=O)n(Cc2ccc(Cl)c(Cl)c2)c(=O)c2c1nc(CC)n2C [Example 57, 1-(3,4-Dichlorobenzyl)-8-ethyl-7-methyl-3-propyl-3,7-dihydro-1H-purine-2,6-dione]"
